Assay results reported in patent publication US9758472B2, “Non-lactone carbocyclic and heterocyclic antagonists and agonists of bacterial quorum sensing” (WISCONSIN ALUMNI RESEARCH FOUNDATION, priority 2009, dated 2017).
Where two headings read alike, the source gives them in different places.

Columns and labels:
LasR [1] = molecular target: T1, LasR (Pseudomonas aeruginosa, UniProt P25084); assay: LasR antagonism assay, E. coli DH5α (pJN105L+pSC11) β-galactosidase reporter strain; type: cell-based, P. aeruginosa; settings: for Antagonist, percent inhibition compared to a positive control: initial library (FIG. 4), negative values indicate agonist properties; for IC50: dose response
T1 construct: expressed in transfected cells; host or cells: Escherichia coli DH5α (pJN105L+pSC11)
Method: (§1) FIG. 5B is a bar graph showing the results of […] assay for initial heterocyclic and carbocyclic library (Scheme 1) shown as a percent of the positive control. Antagonism positive control (Pos)=activity of the reporter strain in the absence of synthetic ligand at the EC50 value for the strain. […] Negative control (Neg)=bacteria in the absence of natural and synthetic ligand. Error bars=standard deviation of the mean of triplicate samples.
(§2) The initial library was tested for LasR agonistic and antagonistic activity in two strains: Escherichia coli DH5α (pJN105L+pSC11) [Lee, J. H.; Lequette, Y.; Greenberg, E. P., Activity of purified QscR, a Pseudomonas aeruginosa orphan quorum-sensing transcription factor. Mol. Microbiol. 2006, 59 (2), 602-609] and P. aeruginosa PA01 MW1 (pUM15) [Muh, U.; Schuster, M.; Heim, R.; Singh, A.; Olson, E.; Greenberg, E. P., Novel Pseudomonas aeruginosa Quorum-Sensing Inhibitors Identified in an Ultra-High-Throughput Screen. Antimicrob. Agents Chemother. 2006, 50, 3674-3679] (FIGS. 5A and 5B). Both strains allow for synthetic autoinducer mimic evaluation and contain a reporter gene that allows for a quantitative readout of QS activity. DH5α (pJN105L+pSC11) is a heterologous β-galactosidase E. coli reporter strain containing a plasmid for the P. aeruginosa LasR gene. The PA01 MW1 (pUM15) strain uses the natural P. aeruginosa background containing a LasI deletion and the gene for yellow fluorescent protein (YFP) under the control of the LasI promoter to evaluate the LasI/R activity. Since the PA01 MW1 (pUM15) strain evaluates LasR in the natural P. aeruginosa background, in contrast to the heterologous E. coli strain, an improved idea of the interplay between the isolated LasI/R system and the combination of LasI/R with other QS subsystems such as QscR can be determined. Furthermore, additional nuances of the natural system such as compound permeability are incorporated in assays using the PA01 MW1 (pUM15) strain.

LasR [2] = molecular target: T1, LasR; assay: LasR agonism assay, E. coli DH5α (pJN105L+pSC11) β-galactosidase reporter strain; type: cell-based, P. aeruginosa; settings: for EC50: dose response; for Act %: thiolactone libraries, E. coli, synthetic ligands tested at 10 μM
Method: (§3) The black bars are DH5α (pJN105L+pSC11) and the grey bars are PA01 MW1 (pUM15). Agonism positive control=activity of the reporter strain at full turn on for the strain. […] Negative control (Neg)=bacteria in the absence of natural and synthetic ligand. Error bars=standard deviation of the mean of triplicate samples.
as §2

LasR [3] = molecular target: T1, LasR; assay: LasR agonism assay, P. aeruginosa PA01 MW1 (pUM15) YFP reporter strain; type: cell-based; settings: for Act %: thiolactone libraries, P. aeruginosa, synthetic ligands tested at 10 μM
Method: as §3, §2

[4] = Functional half-life of autoinducers: ligand pre-incubated in media, then PA01 MW1 (pUM15) agonism readout; type: cell-based, P. aeruginosa; settings: ligand incubated in media with antibiotics at 37° C.; pseudo first order, t1/2=ln(2)/slope
Method: [Glansdorp, F. G.; Thomas, G. L.; Lee, J. K.; Dutton, J. M.; Salmond, G. P. C.; Welch, M.; Spring, D. R., Synthesis and stability of small molecule probes for Pseudomonas aeruginosa quorum sensing modulation. Org. Biomol. Chem. 2004, 2, 3329-3336.] […] In these cases the results were determined by NMR experiments conducted in deuterated buffers. […] Unfortunately, the use of high levels of DMSO reduces the biological relevance of the assay because large concentrations of DMSO cannot be tolerated by biological systems. Furthermore, the required concentrations of ligand are lower in a biologically based functional assay than in an NMR experiment because YFP production is much more sensitive than NMR, which requires relatively high concentrations.
In this assay, media, ligand, and antibiotics are prepared in Teflon-capped vials and allowed to incubate at 37° C. for predetermined times. P. aeruginosa cells from the strain PA01 MW1 (pUM15) were cultured overnight. These cells were then pelleted and washed with LB containing 50 mM MOPS. […] The 96 well plate was incubated for 8 hours and then analyzed for optical density and YFP fluorescence. […] Fluorescence was normalized to cell density and time points were analyzed as a percentage of the ability of the freshly prepared natural ligand to agonize the P. aeruginosa system. […]

TraR [5] = molecular target: T2, TraR (Agrobacterium tumefaciens, UniProt P33905); assay: cell-based; type: cell-based; set-up: and Agrobacterium tumefaciens WCF (pCF372); endogenous in cells; host or cells: Agrobacterium tumefaciens WCF (pCF372); settings: for IC50: dose response, A. tumefaciens WCF (pCF372); for Inhib %: thiolactone libraries, A. tumefaciens, synthetic ligands tested at 10 μM
Method: (§4) The initial library was also tested in Vibrio fischeri ESI 114 (Δ-LuxI) [Lupp, C.; Urbanowski, M.; Greenberg, E. P.; Ruby, E. G., The Vibrio fischeri quorum-sensing systems ain and lux sequentially induce luminescence gene expression and are important for persistence in the squid host. Mol. Microbiol. 2003, 50 (1), 319-331] and Agrobacterium tumefaciens WCF (pCF372). […] J. Bacteriol. 1998, 180 (20), 5398-5405.] […] [Geske, G. D.; O'Neill, J. C.; Miller, D. M.; Mattmann, M. E.; Blackwell, H. E., Modulation of Bacterial Quorum Sensing: Systematic Evaluation of N-Acylated Homoserine Lactones in Multiple Species and New Insights into Their Mechanism of Action. J. Am. Chem. Soc. 2007, 129, 13613-13625.]

LuxR [6] = molecular target: T3, LuxR (Aliivibrio fischeri, UniProt P35327); assay: cell-based; type: cell-based, Vibrio fischeri; set-up: The initial library was also tested in Vibrio fischeri ESI 114 (Δ-LuxI); endogenous in cells; host or cells: Vibrio fischeri ESI 114 (Δ-LuxI); settings: for IC50: dose response; for IC50 / Antagonist, percent inhibition compared to a positive control: V. fischeri ESI 114 (Δ-LuxI); for Antagonist, percent inhibition compared to a positive control: initial library (FIG. 4); for Inhib %: thiolactone libraries, V. fischeri, synthetic ligands tested at 10 μM
Method: as §4

LasR [7] = molecular target: T1, LasR; assay: LasR antagonism assay, P. aeruginosa PA01 MW1 (pUM15) YFP reporter strain; type: cell-based; settings: for LasR antagonism, in words: P. aeruginosa PA01 MW1 (pUM15), natural background; for Antagonist, percent inhibition compared to a positive control: initial library (FIG. 4), P. aeruginosa PA01 MW1, negative values indicate agonist properties
Method: as §1, §2

LuxR [8] = molecular target: T3, LuxR; settings: V. fischeri ESI 114 (Δ-LuxI); for Agonist, percent of activation compared to the positive control: initial library (FIG. 4)
Method: as §4

LasR [9] = molecular target: T1, LasR; assay: LasR antagonism assay, E. coli DH5α (pJN105L+pSC11) β-galactosidase reporter strain; type: cell-based, P. aeruginosa; settings: thiolactone libraries, synthetic ligands tested at 10 μM
TraR [10] = molecular target: T2, TraR; settings: dose response; A. tumefaciens WCF (pCF372)
Method: as §4

[11] = cited from earlier work

T1 sequence (P25084 whole entry): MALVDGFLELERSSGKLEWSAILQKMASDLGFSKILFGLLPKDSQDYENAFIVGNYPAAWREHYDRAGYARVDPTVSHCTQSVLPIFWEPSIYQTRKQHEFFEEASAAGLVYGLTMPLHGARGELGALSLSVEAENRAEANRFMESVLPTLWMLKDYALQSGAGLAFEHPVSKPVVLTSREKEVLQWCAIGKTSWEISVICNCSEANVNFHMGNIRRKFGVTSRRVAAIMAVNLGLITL
T3 sequence (P35327 whole entry): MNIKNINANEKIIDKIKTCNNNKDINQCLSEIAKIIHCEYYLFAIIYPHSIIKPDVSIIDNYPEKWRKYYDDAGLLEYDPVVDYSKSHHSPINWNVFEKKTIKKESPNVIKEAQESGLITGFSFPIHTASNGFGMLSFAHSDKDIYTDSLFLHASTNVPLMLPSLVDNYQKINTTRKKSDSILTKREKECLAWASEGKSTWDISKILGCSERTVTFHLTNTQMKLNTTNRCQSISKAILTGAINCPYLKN
T2 sequence (P33905 whole entry): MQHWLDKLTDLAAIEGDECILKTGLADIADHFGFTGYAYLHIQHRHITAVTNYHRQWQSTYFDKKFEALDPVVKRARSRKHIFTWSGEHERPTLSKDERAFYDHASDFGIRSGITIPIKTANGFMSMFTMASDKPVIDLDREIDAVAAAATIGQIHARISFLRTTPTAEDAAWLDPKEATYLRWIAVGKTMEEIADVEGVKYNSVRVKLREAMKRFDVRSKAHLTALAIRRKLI

Row | SMILES | Act % (LasR [2]) | Act % (LasR [3]) | IC50 (LuxR [6]) | Antagonist, percent inhibition compared to a positive control (LasR [1]; E. coli DH5α (pJN105L+pSC11)) | Antagonist, percent inhibition compared to a positive control (LasR [7]) | Inhib % (LasR [9]) | Inhib % (TraR [5]) | Inhib % (LuxR [6]) | also measured
1 | CCCCCCCCCC(=O)CC(=O)N[C@H]1CCSC1=O [Compound 1E] | 102% | 127% | 450 nM |  |  |  |  |  | inhibition at 10 µM (LasR [1]; read-out: Inhib %): -61%; LasR agonism, in words (LasR [2]; E. coli DH5α (pJN105L+pSC11)): strong agonists; EC50 (LasR [2]; E. coli DH5α (pJN105L+pSC11)): 92 nM; EC50 (LasR [3]; dose response, P. aeruginosa PA01 MW1 (pUM15)): 3200 nM; half-life [4]: 82.3 h; IC50 (TraR [5]): 1800 nM; inhibition at 10 µM (TraR [5]; read-out: Inhib %): 51%; inhibition at 10 µM (LuxR [6]; read-out: Inhib %): 91%
2 | CCCCCCCCCC(=O)CC(=O)Nc1ccccc1 [Compound 2] |  |  |  | 53.7% | 28.7% |  |  |  | LasR antagonism, in words (LasR [1]; E. coli DH5α (pJN105L+pSC11)): antagonism capabilities; LasR antagonism, in words (LasR [7]): antagonism capabilities
3 | CCCCCCCCCC(=O)CC(=O)NCc1ccccc1F [Compound 7] |  |  |  | 38.8% |  |  |  |  | Agonist, percent of activation compared to the positive control (LuxR [8]): 3.1%
4 | CCCCCCCCCC(=O)CC(=O)NCc1ccco1 [Compound 10] |  |  |  |  | 25.5% |  |  |  | Agonist, percent of activation compared to the positive control (LuxR [8]): 3.3%
5 | CCCCCCCCCC(=O)CC(=O)NCc1cccc([N+](=O)[O-])c1 [Compound 13] |  |  |  | 41.0% | 16.8% |  |  |  | Agonist, percent of activation compared to the positive control (LuxR [8]): 1.7%; Antagonist, percent inhibition compared to a positive control (LuxR [6]): 43.8%
6 | CCCCCCCCCC(=O)CC(=O)NCc1ccc(OC)cc1 [Compound 14] |  |  |  | −67.7% | 37.8% |  |  |  | LasR agonism, in words (LasR [2]; E. coli DH5α (pJN105L+pSC11)): strongly agonized; Agonist, percent of activation compared to the positive control (LasR [2]; initial library (FIG. 4), E. coli DH5α (pJN105L+pSC11)): 73.0%; LasR antagonism, in words (LasR [7]): slight antagonism; Antagonist, percent inhibition compared to a positive control (LuxR [6]): 14.6%
7 | O=C(Cc1cccc([N+](=O)[O-])c1)N[C@H]1CCSC1=O [Compound 19E] | 81% | 3% |  |  |  | −3% | 30% | 30% | EC50 (LasR [2]; E. coli DH5α (pJN105L+pSC11)): 4100 nM; EC50 (LuxR [8]; dose response): 11000 nM
8 | CCCCCC(=O)CC(=O)N[C@H]1CCSC1=O [Compound 24E] | 0% | 3% | 350 nM |  |  | −30% | −89% | 99% | EC50 (TraR [10]): 20000 nM
9 | CCCCCCCC(=O)N[C@H]1CCSC1=O [Compound 26E] | 85% | 0% | 130 nM |  |  | 64% | 99% | 80% | IC50 (LasR [1]; E. coli DH5α (pJN105L+pSC11)): 140 nM; IC50 (TraR [5]): 2800 nM
10 | CCCCCCC(=O)N[C@H]1CCSC1=O [Compound 27E] | 8% | 0% | 310 nM |  |  | 78% | 78% | 78% | IC50 (LasR [1]; E. coli DH5α (pJN105L+pSC11)): 790 nM; IC50 (TraR [5]): 10000 nM
11 | CCCCCC(=O)N[C@H]1CCSC1=O [Compound 28E] | 1% | 20% | 840 nM |  |  | 59% | −78% | 93% | IC50 (LasR [1]; E. coli DH5α (pJN105L+pSC11)): 1100 nM
12 | CCCCCCCCCC(=O)CC(=O)N[C@H]1CCOC1=O [OdDHL, 3-oxo-dodecanoyal homoserine lactone] |  |  |  |  |  |  |  |  | half-life [4]: 48.2 h; hydrolysis half-life ([11]; previous experiments, NMR in deuterated buffers, 50% solution of DMSO): approximately two; racemization of the chiral center ([11]; previous experiments, over the course of a week): less than 5%; half-life ([11]; previous literature, growth media at 37° C.): approximately two
